Source: publication PMC3723409 (Basic & clinical pharmacology & toxicology, 2009)
Where two headings read alike, the source gives them in different places.

Key:
[1] = with lopinavir/ritonavir; cited from earlier work
[2] = in vivo interaction with buprenorphine; cited from earlier work
[3] = human, in vivo

| SMILES | Effect on pharmacokinetics / metabolism of buprenorphine [2] | other results |
| --- | --- | --- |
| C[C@H](Cn1cnc2c(N)ncnc21)OCP(=O)(O)O [tenofovir] | – | Change in renal clearance [1]: decrease |
| O=C1Nc2ccc(Cl)cc2[C@@](C#CC2CC2)(C(F)(F)F)O1 [efavirenz] | induction | – |
| CC(C)Nc1cccnc1N1CCN(C(=O)c2cc3cc(NS(C)(=O)=O)ccc3[nH]2)CC1 [delavirdine] | inhibition of buprenorphine metabolism | – |
| Cc1c(O)cccc1C(=O)N[C@@H](CSc1ccccc1)[C@H](O)CN1C[C@H]2CCCC[C@H]2C[C@H]1C(=O)NC(C)(C)C [nelfinavir] | neither nelfinavir nor the combination of lopinavir/ritonavir had any significant effect | – |
| CC(C)c1nc(CN(C)C(=O)N[C@H](C(=O)N[C@@H](Cc2ccccc2)C[C@H](O)[C@H](Cc2ccccc2)NC(=O)OCc2cncs2)C(C)C)cs1 [ritonavir] | increased exposure to buprenorphine | – |
| CO[C@]12CC[C@@]3(C[C@@H]1[C@](C)(O)C(C)(C)C)[C@H]1Cc4ccc(O[C@@H]5O[C@H](C(=O)O)[C@@H](O)[C@H](O)[C@H]5O)c5c4[C@@]3(CCN1CC1CC1)[C@H]2O5 [B3G, buprenorphine-3-glucuronide] | – | Change in renal clearance [3]: No significant changes |
